The values below come from PMC13170702 (Nuclear medicine and biology, 2025).

Data set [1] relates to 70 other CNS binding sites. The conditions noted are these: at 1 μM; cited from earlier work.
In another data set the test system is Sprague-Dawley rats. Kind of data set: GLP 14-day toxicological study. The class given is in vivo. The conditions noted are these: non-radioactive compound given on two consecutive days.

On to `NC(CC(=O)Nc1ccc2c(c1)Cc1cc(F)ccc1-2)C(=O)O` (centres unmarked), for which the “binding at 70 other CNS binding sites” value in data set [1] was “no binding”.

For `COC(=O)[C@@H](N)CC(=O)Nc1ccc2c(c1)Cc1cc(F)ccc1-2` [RP-115], in the data set on Sprague-Dawley rats, the adverse effects entry was “no overt adverse effects”.
